# pIC50: −log10 of the molar value.
# Key:
# [1] = tested on: ATXN3-Q75-GFP SH-SY5Y cells; test: Western blot of LC3-II:LC3-I ratio; format: cell-based, human; conditions: compound 10 μM; uninduced = 100%, untreated induced 76%; range over trehalose and the four compounds
# Procedure: For the immunoblotting analysis, ATXN3-Q75-GFP SH-SY5Y cells were seeded in 6-well plates (3 × 10^5/well) and treated with retinoic acid, test compounds, and doxycycline, as described. On day 8, cells were collected and lysed in buffer (50 mM Tris-HCl pH 8.0, 150 mM NaCl, 2 mM EDTA pH 8.0, 0.1% SDS, 0.5% sodium deoxycholate, 1% NP-40) containing the protease inhibitor cocktail (Sigma-Aldrich). After sonication, the lysates were centrifuged (12,000× g for 10 min at 4 °C) and protein concentrations determined (Bradford protein assay; Bio-Rad, Hercules, CA, USA). Aliquots of protein (20 µg) were separated by electrophoresis using 12% SDS-polyacrylamide gel followed by transfer to a polyvinylidene fluoride membrane. After being blocked with 5% skim milk at 4 °C overnight, the membrane was stained with LC3 (1:1000; Medical & Biological Laboratories Co. #PM036, Tokyo, Japan) or GAPDH (glyceraldehyde 3-phosphate dehydrogenase) (1:1000, MDBio #30000002, Taipei, Taiwan) primary antibody at 4 °C overnight. The immune complexes were detected using HRP-conjugated goat anti-rabbit IgG antibody and chemiluminescent substrate, as described.
# [2] = tested on: human ATXN3-Q75-GFP SH-SY5Y cells; test: MTT compound cytotoxicity assay; format: cell-based; conditions: 0.1–100 μM compound, viability analyzed the next day, n = 3
# Procedure: For the compound cytotoxicity assay, ATXN3-Q75-GFP SY5Y cells (2 × 10^4) were plated into 96-well dishes, grown for 20 h, and treated with 0.1–100 μM test compounds. After 1 day, 3-(4,5-dimethylthiazol-2-yl)-2,5-diphenyltetrazolium bromide (MTT, 5 mg/mL) (Sigma-Aldrich, St. Louis, MO, USA) was added to the cells and incubated for 3 h at 37 °C. Lysis buffer (10% Triton X-100, 0.1 N HCl, 18% isopropanol) was then added to dissolve the insoluble formazan crystals. The absorbance of the purple-colored solution was measured at optical density (OD) 570 nm by using a FLx800 fluorescence microplate spectrophotometer (Bio-Tek, Winooski, VT, USA). The half-maximal inhibitory concentration (IC50) was calculated through the construction of a dose–response curve.
Compound,Relative LC3-II:LC3-I ratio [1],pIC50 [2]
O=C(c1ccccc1)c1cc2c(O)cccc2oc1=O [LM-031],102–124%,
CC(=O)/C(=C\c1ccccc1[N+](=O)[O-])Cc1c[nH]c2ccccc12 [NC009-1],102–124%,< 4.00
CC(=O)/C(=C\c1ccccc1[N+](=O)[O-])Cc1c(C)[nH]c2ccccc12 [NC009-2],102–124%,< 4.00

# — article PMC11477298, “Small Molecules Inducing Autophagic Degradation of Expanded Polyglutamine Protein through Interaction with Both Mutant ATXN3 and LC3” (International Journal of Molecular Sciences, 2024)
